Measurements from paper PMC11396129, “Oxindole–benzothiazole hybrids as CDK2 inhibitors and anticancer agents: design, synthesis and biological evaluation” (BMC Chemistry, 2024).

How the values were obtained:
NCI-H322M = experiment: NCI 60 panel growth inhibition (SRB), non-small cell lung cancer; assay type: cell-based, human; conditions: 10 μM
Protocol: (§1) Screening of cytotoxic activity against a panel of sixty human tumor cell lines The selected compounds by NCI were evaluated for their anticancer activity in a two- stage process. […] Then, the output from the single dose screen is reported as a mean graph. […] Assay protocol. […] For a typical screening experiment, cells are inoculated into 96 well microtiter plates in 100 µL at plating densities ranging from 5000 to 40,000 cells/well depending on the doubling time of individual cell lines. […] After 24 h, two plates of each cell line are fixed in situ with TCA, to represent a measurement of the cell population for each cell line at the time of drug addition (Tz). The experimental drugs are solubilized in dimethyl sulfoxide at 400-fold the desired final maximum test concentration and stored frozen prior to use. At the time of drug addition, an aliquot of frozen concentrate is thawed and diluted to twice the desired final maximum test concentration with complete medium containing 50 µg/mL gentamicin. Additional four, 10-fold or ½ log serial dilutions are made to provide a total of five drug concentrations plus control. […] For adherent cells, the assay is terminated by the addition of cold TCA. […] The supernatant is discarded, and the plates are washed five times with tap water and air dried. […] Using the seven absorbance measurements [time zero, (Tz), control growth, (C), and test growth in the presence of drug at the five concentration levels (Ti)], the percentage growth is calculated at each of the drug concentrations levels. Percentage growth inhibition is calculated as: [(Ti Tz)/(C–Tz)] x 100 for concentrations for which Ti>/=Tz and [(Ti-Tz)/Tz] x 100 for concentrations for which Ti < Tz. Three dose response parameters are calculated for each experimental agent. […] The drug concentration resulting in total growth inhibition (TGI) is calculated from Ti = Tz. […] Values are calculated for each of these three parameters if the level of activity is reached; however, if the effect is not reached or is exceeded, the value for that parameter is expressed as greater or less than the maximum or minimum concentration tested.

A549/ATCC = experiment: as above; assay type: cell-based, human; conditions: 10 μM
Protocol: as §1

NCI-H226 = experiment: as above; assay type: cell-based, human; conditions: NCI-H226, 10 μM
Protocol: as §1

EKVX = experiment: as above; assay type: cell-based, human; conditions: 10 μM
Protocol: as §1

NCI-H522 = experiment: as above; assay type: cell-based, human; conditions: NCI-H522, 10 μM
Protocol: as §1

HOP-92 = experiment: as above; assay type: cell-based, human; conditions: HOP-92, 10 μM
Protocol: as §1

NCI-H23 = experiment: as above; assay type: cell-based, human; conditions: NCI-H23, 10 μM
Protocol: as §1

NCI-H460 = experiment: as above; assay type: cell-based, human; conditions: NCI-H460, 10 μM
Protocol: as §1

[1] = tested on: NCI 60 cancer cell line panel; experiment: NCI 60 panel growth inhibition (SRB), whole panel; assay type: cell-based, human; conditions: mean over NCI 60 panel, 10 μM
Protocol: as §1

786-0 = experiment: NCI 60 panel growth inhibition (SRB), renal cancer; assay type: cell-based, human; conditions: 786-0, 10 μM
Protocol: as §1

TK-10 = experiment: NCI 60 panel growth inhibition (SRB), renal cancer; assay type: cell-based, human; conditions: TK-10, 10 μM
Protocol: as §1

ACHN = experiment: NCI 60 panel growth inhibition (SRB), renal cancer; assay type: cell-based, human; conditions: 10 μM
Protocol: as §1

RXF 393 = experiment: NCI 60 panel growth inhibition (SRB), renal cancer; assay type: cell-based, human; conditions: RXF 393, 10 μM
Protocol: as §1

A498 = experiment: NCI 60 panel growth inhibition (SRB), renal cancer; assay type: cell-based, human; conditions: A498, 10 μM
Protocol: as §1

CAKI-1 = experiment: NCI 60 panel growth inhibition (SRB), renal cancer; assay type: cell-based, human; conditions: CAKI-1, 10 μM
Protocol: as §1

UO-31 = experiment: NCI 60 panel growth inhibition (SRB), renal cancer; assay type: cell-based, human; conditions: UO-31, 10 μM
Protocol: as §1

SN12C = experiment: NCI 60 panel growth inhibition (SRB), renal cancer; assay type: cell-based, human; conditions: 10 μM
Protocol: as §1

RPMI-8226 = experiment: NCI 60 panel growth inhibition (SRB), leukemia; assay type: cell-based, human; conditions: RPMI-8226, 10 μM
Protocol: as §1

CCRF-CEM = experiment: NCI 60 panel growth inhibition (SRB), leukemia; assay type: cell-based, human; conditions: 10 μM
Protocol: as §1

HL-60(TB) = experiment: NCI 60 panel growth inhibition (SRB), leukemia; assay type: cell-based, human; conditions: HL-60(TB), 10 μM
Protocol: as §1

MDA-MB-231/ATCC = experiment: NCI 60 panel growth inhibition (SRB), breast cancer; assay type: cell-based, human; conditions: 10 μM
Protocol: as §1

MDA-MB-468 = experiment: as above; assay type: cell-based, human; conditions: MDA-MB-468, 10 μM
Protocol: as §1

BT-549 = experiment: as above; assay type: cell-based, human; conditions: BT-549, 10 μM
Protocol: as §1

MCF7 = experiment: as above; assay type: cell-based, human; conditions: MCF7, 10 μM
Protocol: as §1

HS 578T = experiment: as above; assay type: cell-based, human; conditions: 10 μM
Protocol: as §1

IGROV1 = experiment: NCI 60 panel growth inhibition (SRB), ovarian cancer; assay type: cell-based, human; conditions: IGROV1, 10 μM
Protocol: as §1

OVCAR-3 = experiment: as above; assay type: cell-based, human; conditions: OVCAR-3, 10 μM
Protocol: as §1

OVCAR-4 = experiment: as above; assay type: cell-based, human; conditions: OVCAR-4, 10 μM
Protocol: as §1

OVCAR-5 = experiment: as above; assay type: cell-based, human; conditions: OVCAR-5, 10 μM
Protocol: as §1

NCI/ADR-RES = experiment: as above; assay type: cell-based, human; conditions: 10 μM
Protocol: as §1

OVCAR-8 = experiment: as above; assay type: cell-based, human; conditions: OVCAR-8, 10 μM
Protocol: as §1

HOP-62 = experiment: NCI 60 panel growth inhibition (SRB), non-small cell lung cancer; assay type: cell-based, human; conditions: HOP-62, 10 μM
Protocol: as §1

T-47D = experiment: NCI 60 panel growth inhibition (SRB), breast cancer; assay type: cell-based, human; conditions: 10 μM
Protocol: as §1

SK-OV-3 = experiment: NCI 60 panel growth inhibition (SRB), ovarian cancer; assay type: cell-based, human; conditions: SK-OV-3, 10 μM
Protocol: as §1

Structure (SMILES)	GI% (NCI-H322M)	GI% (A549/ATCC)	GI% (NCI-H226)	GI% (EKVX)	GI% (NCI-H522)	GI% (NCI-H23)	GI% (NCI-H460)	GI% (TK-10)	GI% (ACHN)	GI% (RXF 393)	GI% (A498)	GI% (CAKI-1)	GI% (UO-31)	GI% (SN12C)	GI% (RPMI-8226)	GI% (CCRF-CEM)	GI% (HL-60(TB))	GI% (MDA-MB-231/ATCC)	GI% (MDA-MB-468)	GI% (BT-549)	further results
COc1ccc(-c2nc3ccccc3s2)cc1OCC(=O)NN=C1C(=O)Nc2ccc([N+](=O)[O-])cc21 [Compound 9p, 2-(5-(Benzo[d]thiazol-2-yl)-2-methoxyphenoxy)-N′-(5-nitro-2-oxoindolin-3-ylidene)acetohydrazide]	6.14%	7.06%	67.22%	9.22%	42.45%	47.90%	– (GI% < 5%)	96.63%	76.97%	99.84%	20.06%	45.22%	19.08%	37.68%	– (GI% < 5%)	9.28%	– (GI% < 5%)	49.20%	17.86%	54.51%	GI% (HOP-92): 99.07%; Mean GI% [1]: 30.34%; GI% (786-0): 87.35%; GI% (MCF7): 17.21%; GI% (HS 578T): 96.22%; GI% (IGROV1): 41.60%; GI% (OVCAR-3): – (GI% < 5%); GI% (OVCAR-4): 13.06%; GI% (OVCAR-5): – (GI% < 5%); GI% (NCI/ADR-RES): 19.93%; GI% (OVCAR-8): 38.18%; melting point: 288 to 290 °C
COc1ccc(-c2nc3ccccc3s2)cc1OCC(=O)NN=C1C(=O)Nc2ccc(Br)cc21 [Compound 9r, 2-(5-(Benzo[d]thiazol-2-yl)-2-methoxyphenoxy)-N′-(5-bromo-2-oxoindolin-3-ylidene)acetohydrazide]	– (GI% < 5%)	7.78%	10.50%	7.18%	8.27%	20.81%	– (GI% < 5%)	36.32%	30.78%	15.08%	– (GI% < 5%)	29.61%	15.64%	20.61%	19.17%	42.87%	– (GI% < 5%)	42.55%	– (GI% < 5%)	21.16%	GI% (HOP-92): 32.33%; Mean GI% [1]: 10.08%; GI% (786-0): 20.37%; GI% (MCF7): 35.42%; GI% (HS 578T): 46.81%; GI% (IGROV1): – (GI% < 5%); GI% (OVCAR-3): – (GI% < 5%); GI% (OVCAR-4): – (GI% < 5%); GI% (OVCAR-5): – (GI% < 5%); GI% (NCI/ADR-RES): 27.04%; GI% (OVCAR-8): 38.56%; melting point: 271 to 273 °C
COc1ccc(-c2nc3ccccc3s2)cc1OCC(=O)NN=C1C(=O)Nc2ccccc21 [Compound 9m, 2-(5-(Benzo[d]thiazol-2-yl)-2-methoxyphenoxy)-N′-(2-oxoindolin-3-ylidene) acetohydrazide]	– (GI% < 5%)	– (GI% < 5%)	– (GI% < 5%)	– (GI% < 5%)	7.23%	14.06%	17.38%	10.32%	19.82%	– (GI% < 5%)	– (GI% < 5%)	9.28%	– (GI% < 5%)	7.15%	25.46%	40.05%	– (GI% < 5%)	9.78%	8.24%	– (GI% < 5%)	GI% (HOP-92): – (GI% < 5%); Mean GI% [1]: 6.03%; GI% (MCF7): 33.97%; GI% (HS 578T): – (GI% < 5%); GI% (IGROV1): – (GI% < 5%); GI% (OVCAR-3): – (GI% < 5%); GI% (OVCAR-4): 16.50%; GI% (OVCAR-5): – (GI% < 5%); GI% (NCI/ADR-RES): 28.96%; GI% (OVCAR-8): 20.84%; melting point: 192 to 194 °C
COc1ccc(-c2nc3ccccc3s2)cc1OCC(=O)NN=C1C(=O)Nc2ccc(Cl)cc21 [Compound 9q, 2-(5-(Benzo[d]thiazol-2-yl)-2-methoxyphenoxy)-N′-(5-chloro-2-oxoindolin-3-ylidene)acetohydrazide]	– (GI% < 5%)	20.18%	24.77%	25.37%	21.77%	42.70%	44.39%	62.99%	59.32%	32.76%	– (GI% < 5%)	50.03%	20.65%	36.67%	46.48%	81.35%	– (GI% < 5%)	59.98%	– (GI% < 5%)	23.63%	GI% (HOP-92): 52.70%; Mean GI% [1]: 31.16%; GI% (786-0): 44.24%; GI% (MCF7): 57.82%; GI% (HS 578T): 74.27%; GI% (IGROV1): 16.12%; GI% (OVCAR-3): 31.89%; GI% (OVCAR-4): 25.24%; GI% (OVCAR-5): – (GI% < 5%); GI% (NCI/ADR-RES): 47.55%; GI% (OVCAR-8): 59.73%; melting point: 260 to 262 °C
O=C(COc1ccccc1-c1nc2ccccc2s1)NN=C1C(=O)Nc2ccc(Cl)cc21 [Compound 9e, 2-(2-(Benzo[d]thiazol-2-yl)phenoxy)-N′-(5-chloro-2-oxoindolin-3-ylidene)acetohydrazide]	– (GI% < 5%)	– (GI% < 5%)	11.52%	53.99%	11.15%	7.05%	– (GI% < 5%)	– (GI% < 5%)	18.45%	– (GI% < 5%)	– (GI% < 5%)	6.21%	– (GI% < 5%)	8.28%	– (GI% < 5%)	–^a (GI% < 5%)	– (GI% < 5%)	15.59%	5.76%	– (GI% < 5%)	GI% (HOP-62): – (GI% < 5%); GI% (786-0): – (GI% < 5%); GI% (T-47D): – (GI% < 5%); GI% (MCF7): 15.86%; GI% (HS 578T): – (GI% < 5%); GI% (IGROV1): – (GI% < 5%); GI% (OVCAR-3): – (GI% < 5%); GI% (OVCAR-4): – (GI% < 5%); GI% (OVCAR-5): – (GI% < 5%); GI% (SK-OV-3): – (GI% < 5%); GI% (NCI/ADR-RES): 6.89%; GI% (OVCAR-8): – (GI% < 5%); melting point: 265 to 267 °C
